Drawing on patent US9409908B2 (priority 2012, dated 2016), this text covers Ki for 21 compounds.

The target in this experiment is purified human Factor XIa (Homo sapiens (Human), UniProt P03951). Briefly: biochemical. It is filed as biochemical. Particulars: read-out: Factor XIa Ki.

Counter-ions that a name gives are not always drawn.

A word on the Ki: it is the dissociation constant of the complex between target and ligand, obtained from inhibition or displacement.

purified human Factor XIa, sequence (P03951 whole entry, looked up): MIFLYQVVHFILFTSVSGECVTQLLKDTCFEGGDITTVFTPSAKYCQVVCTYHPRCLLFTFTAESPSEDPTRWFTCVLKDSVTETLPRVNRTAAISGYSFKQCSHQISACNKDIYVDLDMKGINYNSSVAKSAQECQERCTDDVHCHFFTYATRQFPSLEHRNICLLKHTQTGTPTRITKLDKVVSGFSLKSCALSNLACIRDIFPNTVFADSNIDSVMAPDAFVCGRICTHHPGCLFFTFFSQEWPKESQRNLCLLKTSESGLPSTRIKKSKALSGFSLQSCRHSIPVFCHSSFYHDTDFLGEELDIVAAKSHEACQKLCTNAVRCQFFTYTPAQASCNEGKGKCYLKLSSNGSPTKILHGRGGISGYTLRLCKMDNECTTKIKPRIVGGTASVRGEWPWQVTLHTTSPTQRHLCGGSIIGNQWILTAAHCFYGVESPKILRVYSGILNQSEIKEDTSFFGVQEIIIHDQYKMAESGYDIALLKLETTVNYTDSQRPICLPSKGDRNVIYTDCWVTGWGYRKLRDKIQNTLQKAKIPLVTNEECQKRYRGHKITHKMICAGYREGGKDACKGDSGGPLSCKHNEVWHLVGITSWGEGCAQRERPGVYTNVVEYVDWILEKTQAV
purified human Factor XIa, sequence (P03951 whole entry partner, looked up): as the sequence (P03951 whole entry, looked up) above

As to `CC(=O)c1ccc(Cl)c(F)c1C1=CC(=O)N([C@H]2CCC[C@@H](C)C(=O)Nc3ccccc3-c3ccnc2c3)CC1` [Example 48, (10R,14S)-14-[4-(6-Acetyl-3-chloro-2-fluorophenyl)-6-oxo-1,2,3,6-tetrahydropyridin-1-yl]-10-methyl-8,16-diazatricyclo[13.3.1.0^2,7]nonadeca-1(19),2,4,6,15,17-hexaen-9-one, TFA salt], the inhibitory constant (Ki) stood at 4.77 nM. The value for `COC(=O)c1cc2c(cc1N)NC(=O)[C@H](C)CCC[C@H](N1CCC(c3c(F)ccc(Cl)c3F)=CC1=O)c1cc-2ccn1` [Example 197, Methyl (10R,14S)-5-amino-14-[4-(3-chloro-2,6-difluorophenyl)-6-oxo-1,2,3,6-tetrahydropyridin-1-yl]-10-methyl-9-oxo-8,16-diazatricyclo[13.3.1.0^2,7]nonadeca-1(19),2,4,6,15,17-hexaene-4-carboxylate, 2 TFA salt] was 4.54 nM; that for `C[C@@H]1CCC[C@H](N2CCC(c3c(F)ccc(Cl)c3F)=CC2=O)c2cc(ccn2)-c2ccc(Nc3nnc(-c4ccco4)o3)cc2NC1=O` [Example 103, (10R,14S)-14-[4-(3-Chloro-2,6-difluorophenyl)-6-oxo-1,2,3,6-tetrahydropyridin-1-yl]-5-{[5-(furan-2-yl)-1,3,4-oxadiazol-2-yl]amino}-10-methyl-8,16-diazatricyclo[13.3.1.0^2,7]nonadeca-1(19),2(7),3,5,15,17-hexaen-9-one, TFA salt] was 6.13 nM. The value for `COC(=O)c1ccc2c(c1)-c1cccc(c1)[C@@H](N1CCC(c3c(C(C)=O)ccc(Cl)c3F)=CC1=O)CCC[C@@H](C)C(=O)N2` [Example 172, Methyl (10R,14S)-14-[4-(6-acetyl-3-chloro-2-fluorophenyl)-6-oxo-1,2,3,6-tetrahydropyridin-1-yl]-10-methyl-9-oxo-8-azatricyclo[13.3.1.0^2,7]nonadeca-1(18),2,4,6,15(19),16-hexaene-4-carboxylate] was 140 nM. The value for `C[C@@H]1CCC[C@H](N2CCC(c3c(F)ccc(Cl)c3F)=CC2=O)c2cc(ccn2)-c2cc(-c3nn[nH]n3)ccc2NC1=O` [Example 140, (10R,14S)-14-[4-(3-chloro-2,6-difluorophenyl)-6-oxo-1,2,3,6-tetrahydropyridin-1-yl]-10-methyl-4-(2H-1,2,3,4-tetrazol-5-yl)-8,16-diazatricyclo[13.3.1.0^2,7]nonadeca-1(19),2(7),3,5,15,17-hexaen-9-one] was 1.34 nM. Take `C[C@@H]1CCC[C@H](N2CCC(c3c(F)ccc(Cl)c3F)=CC2=O)c2cc(ccn2)-c2ccc(NC(=O)OCCOC(C)(C)C)cc2NC1=O` [Example 53, 2-(tert-Butoxy)ethyl N-[(10R,14S)-14-[4-(3-chloro-2,6-difluorophenyl)-6-oxo-1,2,3,6-tetrahydropyridin-1-yl]-10-methyl-9-oxo-8,16-diazatricyclo[13.3.1.0^2,7]nonadeca-1(19),2,4,6,15,17-hexaen-5-yl]carbamate, TFA salt]: the Ki worked out at 0.08 nM.

Turning to `C[C@@H]1CCC[C@H](N2CCC(c3c(F)ccc(Cl)c3F)=CC2=O)c2cc(ccn2)-c2ccc(F)cc2NC1=O` [Example 14, (10R,14S)-14-[4-(3-Chloro-2,6-difluorophenyl)-6-oxo-1,2,3,6-tetrahydropyridin-1-yl]-5-fluoro-10-methyl-8,16-diazatricyclo[13.3.1.0^2,7]nonadeca-1(19),2,4,6,15,17-hexaen-9-one, TFA salt], the inhibition constant Ki is 34.8 nM. The value for `CC(=O)Nc1ccc2c(c1)NC(=O)[C@H](C)CCC[C@H](N1CCC(c3c(F)ccc(Cl)c3F)=CC1=O)c1cc-2ccn1` [Example 75, N-[(10R,14S)-14-[4-(3-Chloro-2,6-difluorophenyl)-6-oxo-1,2,3,6-tetrahydropyridin-1-yl]-10-methyl-9-oxo-8,16-diazatricyclo[13.3.1.0^2,7]nonadeca-1(19),2(7),3,5,15,17-hexaen-5-yl]acetamide, TFA salt] was 3.54 nM; that for `C[C@@H]1CCC[C@H](n2ccc(-c3c(F)ccc(Cl)c3F)cc2=O)c2cc(ccn2)-c2ccc(N)cc2NC1=O` [Example 91, (10R,14S)-5-Amino-14-[4-(3-chloro-2,6-difluorophenyl)-2-oxo-1,2-dihydropyridin-1-yl]-10-methyl-8,16-diazatricyclo[13.3.1.0^2,7]nonadeca-1(19),2,4,6,15,17-hexaen-9-one, 2 TFA salt] was 0.56 nM.

Turning to `COC(=O)Nc1ccc2c(c1)NC(=O)[C@H](C)CCC[C@H](N1CCC(c3c(C#N)ccc(C)c3F)=CC1=O)c1cc-2ccn1` [Example 104, Methyl N-[(10R,14S)-14-[4-(6-cyano-2-fluoro-3-methylphenyl)-6-oxo-1,2,3,6-tetrahydropyridin-1-yl]-10-methyl-9-oxo-8,16-diazatricyclo[13.3.1.0^2,7]nonadeca-1(18),2,4,6,15(19),16-hexaen-5-yl]carbamate, TFA salt], the Ki was determined as 0.09 nM. As to `C[C@@H]1CCC[C@H](N2CCC(c3c(F)ccc(Cl)c3F)=CC2=O)c2cc(ccn2)-c2ccc(NC(=N)N)cc2NC1=O` [Example 192, 1-[(10R,14S)-14-[4-(3-chloro-2,6-difluorophenyl)-6-oxo-1,2,3,6-tetrahydropyridin-1-yl]-10-methyl-9-oxo-8,16-diazatricyclo[13.3.1.0^2,7]nonadeca-1(19),2,4,6,15,17-hexaen-5-yl]guanidine, 2 TFA salt], the Ki came to 91 nM. `C[C@@H]1CCC[C@H](N2CCC(c3c(F)ccc(Cl)c3F)=CC2=O)c2cc(ccn2)-n2nc(C(=O)O)cc2NC1=O` [Example 222, (9R,13S)-13-[4-(3-chloro-2,6-difluorophenyl)-6-oxo-1,2,3,6-tetrahydropyridin-1-yl]-9-methyl-8-oxo-2,3,7,15-tetraazatricyclo[12.3.1.0^2,6]octadeca-1(18),3,5,14,16-pentaene-4-carboxylic acid]: the Ki amounted to 88.4 nM. Regarding `COC(=O)Nc1ccc2c(c1)NC(=O)[C@H](C)CCC[C@H](N1CCC(c3c(C#N)ccc(Cl)c3F)=CC1=O)c1cccc-2c1` [Example 173, Methyl N-[(10R,14S)-14-[4-(3-chloro-6-cyano-2-fluorophenyl)-6-oxo-1,2,3,6-tetrahydropyridin-1-yl]-10-methyl-9-oxo-8-azatricyclo[13.3.1.0^2,7]nonadeca-1(18),2,4,6,15(19),16-hexaen-5-yl]carbamate], the Ki came to 0.42 nM. The value for `C[C@@H]1CCC[C@H](N2CCC(c3c(F)ccc(Cl)c3F)=CC2=O)c2cc(ccn2)-c2cc(C(=O)O)ccc2NC1=O` [Example 146, (10R,14S)-14-[4-(3-chloro-2,6-difluorophenyl)-6-oxo-1,2,3,6-tetrahydropyridin-1-yl]-10-methyl-9-oxo-8,16-diazatricyclo[13.3.1.0^2,7]nonadeca-1(19),2(7),3,5,15,17-hexaene-4-carboxylic acid] was 2.45 nM; that for `COC(=O)Nc1ccc2c(c1)NC(=O)[C@H](C)CCC[C@H](N1CCC(c3cc(Cl)ccc3OC(F)F)=CC1=O)c1cc-2ccn1` [Example 44, Methyl N-[(10R,14S)-14-{4-[5-chloro-2-(difluoromethoxy)phenyl]-6-oxo-1,2,3,6-tetrahydropyridin-1-yl}-10-methyl-9-oxo-8,16-diazatricyclo[13.3.1.0^2,7]nonadeca-1(19),2,4,6,15,17-hexaen-5-yl]carbamate, TFA salt] was 0.13 nM; that for `C[C@@H]1CCC[C@H](N2CCC(c3c(-n4cnnn4)ccc(Cl)c3F)=CC2=O)c2cc(ccn2)-c2ccccc2NC1=O` [Example 68, (10R,14S)-14-{4-[3-Chloro-2-fluoro-6-(1H-1,2,3,4-tetrazol-1-yl)phenyl]-6-oxo-1,2,3,6-tetrahydropyridin-1-yl}-10-methyl-8,16-diazatricyclo[13.3.1.0^2,7]nonadeca-1(19),2(7),3,5,15,17-hexaen-9-one, TFA salt] was 0.05 nM.

For the compound `C[C@@H]1CCC[C@H](N2CCC(c3c(F)ccc(Cl)c3F)=CC2=O)c2cc(ccn2)-c2ccc(NS(C)(=O)=O)cc2NC1=O` [Example 76, N-[(10R,14S)-14-[4-(3-Chloro-2,6-difluorophenyl)-6-oxo-1,2,3,6-tetrahydropyridin-1-yl]-10-methyl-9-oxo-8,16-diazatricyclo[13.3.1.0^2,7]nonadeca-1(19),2(7),3,5,15,17-hexaen-5-yl]methanesulfonamide, TFA salt], the Ki was 7.89 nM. The value for `C[C@@H]1CCC[C@H](N2CCC(c3c(F)ccc(Cl)c3F)=CC2=O)c2cc(ccn2)-c2ccc(NC3O[C@H](CO)[C@@H](O)[C@H](O)[C@@H]3N)cc2NC1=O` (stereo partly drawn) [Example 127, (10R,14S)-5-{[(3S,4R,5S,6R)-3-amino-4,5-dihydroxy-6-(hydroxymethyl)oxan-2-yl]amino)-14-[4-(3-chloro-2,6-difluorophenyl)-6-oxo-1,2,3,6-tetrahydropyridin-1-yl]-10-methyl-8,16-diazatricyclo[13.3.1.0^2,7]nonadeca-1(19),2,4,6,15,17-hexaen-9-one] was 3.61 nM; that for `C#Cc1ccc(Cl)c(F)c1C1=CC(=O)N([C@H]2CCC[C@@H](C)C(=O)Nc3cc(NC(=O)OC)ccc3-c3ccnc2c3)CC1` [Example 181, Methyl N-[(10R,14S)-14-[4-(3-chloro-6-ethynyl-2-fluorophenyl)-6-oxo-1,2,3,6-tetrahydropyridin-1-yl]-10-methyl-9-oxo-8,16-diazatricyclo[13.3.1.0^2,7]nonadeca-1(19),2(7),3,5,15,17-hexaen-5-yl]carbamate] was 0.1 nM; that for `C[C@@H]1CCC[C@H](N2CCC(c3c(F)ccc(Cl)c3F)=CC2=O)c2cc(ccn2)-c2ccc(N)cc2NC1=O` [Example 12, (10R,14S)-5-Amino-14-[4-(3-chloro-2,6-difluorophenyl)-6-oxo-1,2,3,6-tetrahydropyridin-1-yl]-10-methyl-8,16-diazatricyclo[13.3.1.0^2,7]nonadeca-1(19),2,4,6,15,17-hexaen-9-one] was 1.5 nM. The value for `C[C@@H]1CCC[C@H](N2CCC(c3cc(Cl)ccc3-n3ccnn3)=CC2=O)c2cc(ccn2)-c2ccccc2NC1=O` [Example 189, (10R,14S)-14-{4-[5-chloro-2-(1H-1,2,3-triazol-1-yl)phenyl]-6-oxo-1,2,3,6-tetrahydropyridin-1-yl}-10-methyl-8,16-diazatricyclo[13.3.1.0^2,7]nonadeca-1(19),2(7),3,5,15,17-hexaen-9-one] was 2.28 nM.
